Experimental data published in ChEMBL document CHEMBL1201862, “PubChem BioAssay data set” (2004).
Where a name gives a salt, the structure may show the parent alone. Calls of active or inactive are those of the source.

Experiments:
[1] = inhibitors of non-replicating M. tuberculosis, dose response, luciferase, dry powder (AID 651619); type: functional; conditions: Mycobacterium tuberculosis
[2] = YAP1 overexpression rescue of CTGF inhibition – DLD1 cells, RT-qPCR, cherry-pick, mechanism study for YAP1 pathway inhibitor project, dose response (AID 1053127); type: functional, cell-based; conditions: DLD-1
[3] = CTGF mRNA reduction in DLD1 cells – cell-based, DLD1 colon cancer, RT-qPCR, cherry-pick, dose response (AID 1053122); type: functional; conditions: Cancer cell lines
[4] = antimalarial activity against Dd2 parasites – SYBR Green fluorescence, erythrocytes, dry powder, set 2, dose response (AID 1159574); type: functional, cell-based
[5] = toxicity to HepG2 liver cells – cell-based, plate reader, dry powder, set 6, cytotoxicity control, dose response (AID 743311); type: functional
[6] = cells; conditions: HEK293
[7] = loss of HEK293T viability via ATP – cell-based, plate reader, dry powder, set 10, cytotoxicity control, dose response (AID 743315); type: functional; conditions: HEK293
[8] = toxicity to A549 lung cells – cell-based, plate reader, dry powder, set 6, cytotoxicity control, dose response (AID 743312); type: functional
[9] = Dd2 parasite growth inhibition in erythrocytes – SYBR Green, dry powder samples, set 9, dose response (AID 1159568); type: functional, cell-based
[10] = toxicity to human HepG2 hepatoma cells – cell-based, plate reader, dry powder samples, cytotoxicity control, dose response (AID 1159569); type: functional;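 note: inhibitor potency with signal falling toward the positive control level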
[11] = growth inhibition of yeast DHODH-expressing 3D7 parasites – SYBR Green, dry powder samples, dose response (AID 1159570); type: functional, cell-based;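 note: parasite growth measured after 72 hours of compound exposure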
[12] = Dd2 malaria parasite growth inhibition potency – SYBR Green, dry powder samples, dose response (AID 1159566); type: functional, cell-based;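 note: potency for growth inhibition with lower SYBR green DNA signal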
[13] = growth inhibition of PfATP4-mutant resistant parasites – NITD609-resistant line, SYBR Green, dry powder, dose response (AID 1159571); type: functional, cell-based;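 note: parasites synchronized at ring stage by sorbitol before testing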
[14] = Reduced DLD-1 viability, concentration-response, CellTiter-Glo luminescence (AID 1117352); type: functional
[15] = cytotoxicity toward HCT116 cells – cell-based, CellTiter-Glo luminescence, IC50, dose response (AID 1117332); type: functional; conditions: HCT-116
[16] = SNU-C1 cell viability reduction, dose response, CellTiter-Glo luminescence (AID 1117323); type: functional, cell-based
[17] = RKO cell viability reduction, dose response, CellTiter-Glo luminescence (AID 1117322); type: functional
[18] = CellTiter-Glo luminescence survival assay, SW480 colon tumor line, concentration-response curve, half-maximal inhibitory concentration (AID 1117338); type: functional
[19] = cytotoxicity toward Colo320 cells – cell-based, CellTiter-Glo luminescence, IC50, dose response (AID 1117334); type: functional; conditions: COLO 320
[20] = cytotoxicity toward HT-29 cells – cell-based, CellTiter-Glo luminescence, IC50, dose response (AID 1117330); type: functional
[21] = rise of 2N DNA cells, HeLa – IC50, dose response (AID 1117349); type: functional, cell-based
[22] = rise of 4N DNA cells, HeLa – IC50, dose response (AID 1117351); type: functional, cell-based

SMILES: [N-]=[N+]=NCCOCCNC(=O)CCCn1cc(C[S+]([O-])c2nnc(-c3ccc(F)cc3)o2)nn1 (configuration not stated)
- IC90 [1]: 125 µM (active)

SMILES: COc1ccccc1C#Cc1ccc([C@@H]2[C@@H](CO)N3CCCCN(C(=O)C4CCC4)C[C@@H]23)cc1
- AC50 [2]: 17.7 µM (active)
- AC50 [3]: 15.9 µM (active)

SMILES: COc1ccc2c3c([nH]c2c1)[C@@H](CO)N(C(C)=O)CC31CCN(C(=O)Nc2ccccc2F)CC1
- AC50 [4]: 2.48 µM (active)

SMILES: Cc1cccc(OCCn2c(S)nc3cc(F)ccc32)c1
- AC50 [5]: 44.9 µM (active)
- AC50 [6]: > 52 µM (inactive)
- AC50 [7]: > 52 µM (inactive)
- AC50 [8]: 23.4 µM (active)

SMILES: N#C[C@H]1[C@H](c2ccc(-c3cccc(F)c3)cc2)[C@@H](CO)N1C(=O)NC1CCCC1
- AC50 [9]: 20.2 µM (active)

SMILES: C[C@H]1CN([C@@H](C)CO)C(=O)c2c(c3ccccc3n2C)-c2ccccc2CO[C@H]1CN(C)S(=O)(=O)c1ccc(F)cc1
- AC50 [10]: 50.9 µM (active)
- AC50 [11]: 819 nM (active)
- AC50 [12]: 470 nM (active)
- AC50 [13]: 1.05 µM (active)

SMILES: Cc1cccc(Cc2c[nH]cn2)c1C [DETOMIDINE HYDROCHLORIDE]
- IC50 [14]: > 20 µM (inactive)
- IC50 [15]: > 20 µM (inactive)
- IC50 [16]: > 20 µM (inactive)
- IC50 [17]: > 20 µM (inactive)
- IC50 [18]: > 20 µM (inactive)
- IC50 [19]: > 20 µM (inactive)
- IC50 [20]: > 20 µM (inactive)

SMILES: C[C@@H]1C[C@H]2[C@@H]3CCC4=CC(=O)C=C[C@]4(C)[C@@]3(Cl)[C@@H](O)C[C@]2(C)[C@@]1(OC(=O)c1ccco1)C(=O)CCl [MOMETASONE FUROATE]
- IC50 [21]: > 10 µM (inactive)
- IC50 [22]: > 10 µM (inactive)
